{
  "source": "patent US20090076050A1",
  "about": "“SYNERGISTIC TUMOR-KILLING EFFECT OF RADIATION AND BERBERINE COMBINED TREATMENT IN LUNG CANCER” (CHUNG SHAN MEDICAL U., priority 2007, published 2009)",
  "tested_on": "A549 cells",
  "assay": "clonogenic survival assay (linear-quadratic model)",
  "assay_type": "cell-based, human",
  "experimental": "Cells were cultured in phenol-red-free medium and irradiated with a […] (Varian, 21-EX). The radiation was delivered as a single dose ranging from 2 to 8 Gy in an appropriate field size at a dose rate of 400 cGy/min. A 3-cm polystyrene block was used under the petri dishes during each irradiation to allow homogeneous backscattering radiation. Control cells were removed from the incubator and placed for the same period of time under the IR source but without radiation treatment. In the combined treatment mortality tests, berberine was added 2 h prior to irradiation.\nThe enhancing effect of berberine on radio-sensitivity in NSCLC was performed by treating A549 with various concentrations of berberine alone or combined with different dose of IR at 37° C. for 24 h or 48 h followed by MTT assay for cell viability analysis. Thereafter, the medium was changed and incubated with 100 μl MTT (Sigma St Louis, Mo.)/well for 4 h, which was solubilized in isopropanol, and measured spectrophotometrically at 563 nm. […] To further ascertain the effect of berberine on the lethality of IR, clonogenic survival assay was performed to examine long term survival. IR or berberine-treated cells (1000 cells) were plated onto 10 cm tissue culture dish in five replicates. After 14 days, colonies were fixed with methanol, stained with 0.25% crystal violet, and counted if they were consisted of more than 50 cells. The fraction of colonies survived from the irradiation was normalized to that of the corresponding control. The curves were fitted to the data using linear-quadratic model. The data were depicted in FIG. 1C after normalization.\nStatistical significances were analyzed by student t-test or one-way analysis of variance (ANOVA) with post-hock Dunnett's test. P-value≦0.05 was considered statistically significant (Sigma-Stat 2.0, San Rafael, Calif., USA). Survival fraction curve was analyzed by KaleigaGraph 4.0 then fitted to the data using linear-quadratic model. Combination index was analyzed by CalcuSyn.",
  "data": [
    {"smiles": "COc1ccc2cc3[n+](cc2c1OC)CCc1cc2c(cc1-3)OCO2", "note": "[berberine, Berberine]", "values": [
      {"measurement": "decrease in the D0 value", "setting": "10 μM berberine vs IR alone", "result": 4.2, "unit": "fold"},
      {"measurement": "D0 (dose of radiation producing a 37% survival rate)", "setting": "IR + 2.5 μM berberine", "result": 4.01, "unit": "Gy"},
      {"measurement": "SF2", "setting": "IR + 2.5 μM berberine", "result": 0.3184},
      {"measurement": "D0 (dose of radiation producing a 37% survival rate)", "setting": "IR + 5.0 μM berberine", "result": 2.70, "unit": "Gy"},
      {"measurement": "SF2", "setting": "IR + 5.0 μM berberine", "result": 0.2152},
      {"measurement": "D0 (dose of radiation producing a 37% survival rate)", "setting": "IR + 10 μM berberine", "result": 1.24, "unit": "Gy"},
      {"measurement": "SF2", "setting": "IR + 10 μM berberine", "result": 0.0991}
    ]}
  ]
}
